In US9309187B2, “EP2 receptor agonists” (TAKEDA GMBH, priority 2012, dated 2016):

Tested on: total leukocyte and neutrophil counts in bronchoalveolar lavage fluid
Assay: In vivo assay: LPS-induced pulmonary inflammation model in rats
Parameters: species or system Sprague Dawley rats
Details: Rattus norvegicus, po; p.o. 1 h prior to LPS aerosol; BAL cell counts 4 h after LPS
Experimental: In Vivo Assay: LPS-Induced Pulmonary Inflammation Model in Rats
Exposure of rats to aerosolised lipopolysaccharide (LPS) causes a pulmonary mainly neutrophilic inflammation, which can be assessed by bronchoalveolar lavage (BAL). LPS-induced pulmonary inflammation models are robust and are commonly used for the evaluation of test compounds modulating the immediate immune response. Selective EP2 agonists are administered per oral 1 h prior nose-only LPS challenge in rats. The anti-inflammatory activity of the selective EP2 agonists is assessed based on pulmonary total leukocyte and neutrophil counts in the bronchoalveolar lavage fluid 4 h after LPS exposure.
Male Sprague Dawley rats weighing 250-300 g were used. Rats were delivered 1 week prior to the experiments and hadfree access to water and food.
The test compound was mixed with 1.33% polyethylenglycol 400 (PEG400, Merck, Darmstadt, Germany) and subsequently suspended in 2% methocel solution (hypromellose, Sigma, Steinheim, Germany) containing Antifoam C Emulsion (Sigma, Steinheim, Germany, 0.1 mL/15 mL) using a mixing device (ULTRA-TURRAX T8 basic, VDI12, VWR International GmbH). The aimed doses were prepared by dilution series from the stock suspension, which was prepared for the administration of the highest dose in each experiment.
The administered volume of the compound suspension was 10 mL/kg. On day of the experiment the rat body weights were documented to calculate the volume to be administered. LPS challenged and unchallenged control animals received compound-free vehicle solution as placebo. Test compounds and vehicle were administered by oral gavage 1 h prior to LPS challenge.
Conscious and restrained animals were connected to a nose-only exposure system (CR equipment SA, Tannay, Switzerland) and were exposed to the LPS aerosol for 30 min. The LPS-containing aerosol was generated using a compressed air driven medication nebulizer device (Pari LC Sprint Star, Pari GmbH, Starnberg, Germany). The LPS solution (E. coli, Serotype 055B5, Sigma-Aldrich, 1 mg/ml diluted in PBS) was prepared 30 minutes in advance. The aerosol was dispersed and transported to the exposure tower by a sheath air flow of 6001/h. All rats except negative controls were exposed to LPS.
4 hours after LPS challenge, animals were anesthetised by isoflurane and scarified by cervical dislocation. BALs were performed. For the BAL the trachea was exposed and cannulated, followed by gently lavaging the lungs two times in situ with 4 ml PBS buffer supplemented with 0.5% Bovine Serum Albumin (Serve, Darmstadt, Germany).
Determination of total leukocyte and neutrophil counts in BALF was performed with an automated leukocyte differentiation system (XT-2000iV, Sysmex, Norderstedt, Germany).
The baseline correction was done for each sample according to the formula: baseline-corrected cell count value=cell count−median (negative control group)
Suppression of LPS-induced total cell and neutrophil influx into the lungs was calculated in % using the medians of the cell counts of each treatment group in relation to the control groups according to the formula: % effect=(Y−K)/K*100 • With defining: • Y=median of the baseline-corrected compound treated group • K=median of the baseline-corrected vehicle treated group
Statistical analysis was performed on the primary cell count data using One-Way ANOVA and Dunnett's Multiple Comparison test vs. positive control.

| SMILES | ED50 |
| --- | --- |
| O=C(O)/C=C/c1cccc(NC(=O)c2cc(-c3ccccc3)cc3ccccc23)c1 [Example 1, (2E)-3-(3-{[(3-phenylnaphthalen-1-yl)carbonyl]amino}phenyl)prop-2-enoic acid] | 0.1 to 2 mg/kg |
| O=C(O)/C=C/c1ccc(F)c(NC(=O)c2cc(-c3ccccc3)cc3ccccc23)c1 [Example 2, (2E)-3-(4-fluoro-3-{[(3-phenylnaphthalen-1-yl)carbonyl]amino}phenyl)prop-2-enoic acid] | 0.1 to 2 mg/kg |
| O=C(O)/C=C/c1ccc(Cl)c(NC(=O)c2cc(-c3ccccc3)cc3ccccc23)c1 [Example 3, (2E)-3-(4-chloro-3-{[(3-phenylnaphthalen-1-yl)carbonyl]amino}phenyl)prop-2-enoic acid] | 0.1 to 2 mg/kg |
| O=C(O)/C=C/c1ccc(F)c(NC(=O)c2cc(-c3ccccc3F)cc3ccccc23)c1 [Example 9, (2E)-3-{3-[({3-[2-fluorophenyl]naphthalen-1-yl}carbonyl)amino]-4fluorophenyl}prop-2-enoic acid] | 0.1 to 2 mg/kg |
| O=C(O)/C=C/c1ccc(F)c(NC(=O)c2cc(-c3cccc(F)c3)cc3ccccc23)c1 [Example 10, (2E)-3-{3-[({3-[3-fluorophenyl]naphthalen-1-yl}carbonyl)amino]-4fluorophenyl}prop-2-enoic acid] | 0.1 to 2 mg/kg |
